Numbers after ± are expanded uncertainties.
What was measured:
[1] = Liquid; for speed of sound: Sing-around technique in a fixed-path interferometer; for mass density: Vibrating tube method
[2] = xn = mol fraction of the nth substance listed; settings: 101 kPa, Liquid, x2 = 0; for mass density: Vibrating tube method; for speed of sound: Sing-around technique in a fixed-path interferometer

Row | SMILES | speed of sound ([1]; 288.15 K, 101.33 kPa) | mass density ([1]; 288.15 K, 101.33 kPa) | speed of sound ([1]; 298.15 K, 101.33 kPa) | mass density ([1]; 298.15 K, 101.33 kPa) | speed of sound ([1]; 308.15 K, 101.33 kPa) | mass density ([1]; 308.15 K, 101.33 kPa) | speed of sound ([1]; 318.15 K, 101.33 kPa) | mass density ([1]; 318.15 K, 101.33 kPa) | speed of sound ([1]; 328.15 K, 101.33 kPa) | mass density ([1]; 328.15 K, 101.33 kPa) | speed of sound ([1]; 338.15 K, 101.33 kPa) | mass density ([1]; 338.15 K, 101.33 kPa) | speed of sound ([2]; 318.15 K) | speed of sound ([2]; 328.15 K) | mass density ([2]; 328.15 K) | speed of sound ([2]; 338.15 K) | mass density ([2]; 338.15 K) | other results
1 | CCCC[n+]1ccn(CC)c1.O=S(=O)([O-])C(F)(F)F | 1396.3 ± 2.1 m/s | 1269.97 ± 1.4 kg/m3 | 1373.1 ± 2.1 m/s | 1262.21 ± 1.4 kg/m3 | 1350.6 ± 2.1 m/s | 1254.44 ± 1.4 kg/m3 | 1328.6 ± 2.1 m/s | 1246.71 ± 1.4 kg/m3 | 1307.1 ± 2.1 m/s | 1239.01 ± 1.4 kg/m3 | 1286.1 ± 2.1 m/s | 1231.35 ± 1.4 kg/m3 |  |  |  |  |  | speed of sound ([1]; 278.15 K, 101.33 kPa): 1420.6 ± 2.1 m/s; mass density ([1]; 278.15 K, 101.33 kPa): 1278.02 ± 1.5 kg/m3
2 | CCCC[N+]1(C)CCCC1.O=S(=O)([O-])C(F)(F)F [1-butyl-1-methylpyrrolidinium trifluoromethanesulfonate] | 1486.1 ± 1.2 m/s | 1259.74 ± 0.45 kg/m3 | 1461.4 ± 1.2 m/s | 1252.26 ± 0.44 kg/m3 | 1437.8 ± 1.2 m/s | 1245.09 ± 0.44 kg/m3 | 1414.9 ± 1.2 m/s | 1237.94 ± 0.43 kg/m3 | 1392.7 ± 1.2 m/s | 1230.81 ± 0.42 kg/m3 | 1371.1 ± 1.2 m/s | 1223.73 ± 0.42 kg/m3 |  |  |  |  |  | speed of sound ([1]; 278.15 K, 101.33 kPa): 1513.5 ± 1.2 m/s; mass density ([1]; 278.15 K, 101.33 kPa): 1267.23 ± 0.45 kg/m3
3 | CCCCn1cc[n+](C)c1.O=S(=O)([O-])C(F)(F)F [1-butyl-3-methylimidazolium trifluoromethanesulfonate] | 1416 ± 2.1 m/s | 1304.56 ± 1.5 kg/m3 | 1393 ± 2.1 m/s | 1296.67 ± 1.5 kg/m3 | 1370.7 ± 2.1 m/s | 1288.78 ± 1.5 kg/m3 | 1349 ± 2.1 m/s | 1280.95 ± 1.5 kg/m3 | 1327.8 ± 2.1 m/s | 1273.16 ± 1.4 kg/m3 | 1307 ± 2.1 m/s | 1265.44 ± 1.4 kg/m3 |  |  |  |  |  | 
4 | O [water] |  |  |  |  |  |  |  |  |  |  |  |  |  |  |  |  |  | mass density ([1]; 278.15 K, 101 kPa): 999.99 ± 0.03 kg/m3; speed of sound ([1]; 318.15 K, 101 kPa): 1536.8 ± 0.76 m/s; speed of sound ([1]; 328.15 K, 101 kPa): 1547.7 ± 0.76 m/s; mass density ([1]; 328.15 K, 101 kPa): 985.7 ± 0.04 kg/m3; speed of sound ([1]; 338.15 K, 101 kPa): 1553.6 ± 0.76 m/s; mass density ([1]; 338.15 K, 101 kPa): 980.56 ± 0.04 kg/m3
5 | O [water] + CCCC[N+]1(C)CCCC1.O=S(=O)([O-])C(F)(F)F |  |  |  |  |  |  |  |  |  |  |  |  | 1536.8 ± 0.76 m/s | 1547.7 ± 0.76 m/s | 985.7 ± 0.04 kg/m3 | 1553.6 ± 0.76 m/s | 980.56 ± 0.04 kg/m3 | mass density ([2]; 278.15 K): 999.99 ± 0.03 kg/m3
6 | O [water] + CCCC[n+]1ccn(CC)c1.O=S(=O)([O-])C(F)(F)F |  |  |  |  |  |  |  |  |  |  |  |  | 1536.8 ± 0.76 m/s | 1547.7 ± 0.76 m/s | 985.7 ± 0.04 kg/m3 | 1553.6 ± 0.76 m/s | 980.56 ± 0.04 kg/m3 | mass density ([2]; 278.15 K): 999.99 ± 0.03 kg/m3
7 | O [water] + CCCCn1cc[n+](C)c1.O=S(=O)([O-])C(F)(F)F |  |  |  |  |  |  |  |  |  |  |  |  | 1536.8 ± 0.76 m/s | 1547.7 ± 0.76 m/s | 985.7 ± 0.04 kg/m3 | 1553.6 ± 0.76 m/s | 980.56 ± 0.04 kg/m3 | 

Source: the NIST ThermoML archive (doi:10.1021/je300134c)
